Assays:
[1] = test system: primary ciliated normal human bronchial epithelial cells (NHBEs); assay: Airway surface liquid (ASL) thickness in primary NHBEs at air liquid interface; format: cell-based; conditions: CATR 20 μM; for effect on the ANT2 overexpression increase in ASL: BKA 4 μM apical 18 hours, apyrase 10 units 4 hours
Protocol: (§1) The apical surface of cells was washed once with PBS 18 hours prior to the addition of Texas Red. ASL was visualized by adding 10-kD Texas Red-dextran (17.5 μl per 12-well insert, ThermoFisher) to the apical surface of NHBE or HBEKT cultures at air liquid interface, as previously described. ASL was imaged 4 hours later by acquiring 4×4 tiled z-stacks by live-cell confocal microscopy with a heat and CO2 controlled stage (Zeiss 780 with a 40× water objective). Fluorinert ([…] was added to the top of the insert cultures immediately prior to imaging to prevent evaporation. Z-stacks were analyzed by segmentation and pixel thickness analysis. For experiments with ANT inhibitors, CATR (20 μM, Sigma) and BKA (4 μM, Sigma) in 20 μl PBS (or control PBS alone) were added to the apical surface of ALI cultures (NHBEs or HBEKTs) 18 hours prior to ASL assessment. Texas Red was added 4 hours prior to ASL testing. For apyrase treatment, 10 units of apyrase (Sigma) was added with Texas Red-dextran as described above 4 hours prior to ASL assessment.
Thickness across the sample was computed using a custom script, written in Matlab (Mathworks, Natick, MA). Briefly, for each value x in the three-dimensional images, Im(x,y, z), the resultant (y, z) slice was segmented using adaptive thresholding (Matlab command: imbinarize), followed by operations to fill holes (imfill), morphological opening (imopen) and filtering of small regions (bwareaopen) (FIG. 13a). The threshold level was adjusted after preprocessing the complete image and the process repeated. For each y in this binary image, the number of segmented pixels was counted, giving a measure of the thickness in the (x, y) location; see FIG. 13. This gave a histogram of depths over the image (FIG. 13c). An average depth was computed for all pixels in which a non-zero depth was detected (to avoid edge effects). The process was repeated by fixing y and working with the (x, z) slice. The differences between the averages were typically less than 1-2%. Thickness in pixels was converted to μm using a slice thickness of 0.46 μm, the step size used to collect the z-stack.

HBEKT cells [2] = assay: Airway surface liquid (ASL) height in HBEKTs at air liquid interface; format: cell-based, human; conditions: CATR 20 μM, BKA 4 μM
Protocol: as §1
Thickness across the sample was computed using a custom script, written in Matlab (Mathworks, Natick, MA). […] For each y in this binary image, the number of segmented pixels was counted, giving a measure of the thickness in the (x, y) location; see FIG. 13. […]

HBEKT cells [3] = assay: Seahorse Mitostress cellular metabolism (OCR, ATP production, proton leak); format: cell-based, human; conditions: 30 min after injection, CATR 20 μM, BKA 4 μM
Protocol: For metabolic analysis, HBEKT cells were cultured in 96-well Seahorse assay plates (Agilent) and infected with adenovirus constructs for ANT1, ANT2 and control for target overexpression at 48 hours (MOI 40, Vector BioLabs) or siRNA target suppression using siRNA and Lipofectamine as described above for ANT1, ANT2 or non-targeting control siRNA at 72 hours. After viral infection or siRNA transfection, cells were treated for 4 hours with KSFM media alone or 20% CSE. Cells were washed once in KSFM, followed by washes in buffered Seahorse Assay medium (pH 7.4) and subsequent metabolic testing according to the manufacturer's protocol (Agilent Seahorse XF96). Oligomycin (2 μM, ATPase inhibitor), FCCP (0.25 μM mitochondrial uncoupler) and a cocktail of rotenone (0.5 μM, ETC complex I inhibitor) and antimycin A (0.5 μM, ETC complex III inhibitor) were sequentially injected after three basal rates were measured. Sample measurements were normalized to total cellular mass determined by CyQuant Assay according to the manufacturer protocol (Molecular Probes, ThermoFisher). For experiments including ANT specific inhibitors, carboxyatractyloside (CATR, 20-μM, Sigma), Bongkrekic acid (BKA, 4-μM, Sigma) or vehicle control were injected into wells after basal OCR measurements were taken followed by repeat OCR measurements 30 minutes after compound injection. […]

Row | Compound | ASL in control virus-treated cells [1] | effect on the ANT2 overexpression increase in ASL [1] | effect on the ANT2 enhancement of ASL height (HBEKT cells [2]) | ATP production after ANT inhibitor (HBEKT cells [3]) | basal oxidative respiration after ANT inhibitor (HBEKT cells [3])
1 | C=C1[C@@H]2CC[C@H]3[C@]4(C)C[C@H](O[C@@H]5O[C@H](CO)[C@@H](OS(=O)(=O)O)[C@H](OS(=O)(=O)O)[C@H]5OC(=O)CC(C)C)CC(C(=O)O)(C(=O)O)[C@H]4CC[C@]3(C2)[C@H]1O [carboxyatractyloside] | trend towards decreasing ASL | abrogated | abolished | – | –
2 | CO[C@H](C/C=C\C=C\CC/C=C/C[C@H](C)/C=C/C(=C\C(=O)O)CC(=O)O)/C(C)=C\C=C(/C)C(=O)O [Bongkrekic acid] | – | abrogated | abolished | halted | halted
3 | apyrase | – | reversed | – | – | –

From patent publication US12478661B2, “Lung cell treatments to prevent or treat disease” (THE JOHNS HOPKINS UNIVERSITY, priority 2017, dated 2025)
